target: T1, Axl (Homo sapiens, UniProt P30530); assay: Phospho-Akt In-Cell Western Assay (inhibition of Axl activity after Axl-antibody cross-linking); type: cell-based; conditions: not given
T1 construct: endogenous in cells; host or cells: HeLa cells
T1 sequence (P30530 26-894): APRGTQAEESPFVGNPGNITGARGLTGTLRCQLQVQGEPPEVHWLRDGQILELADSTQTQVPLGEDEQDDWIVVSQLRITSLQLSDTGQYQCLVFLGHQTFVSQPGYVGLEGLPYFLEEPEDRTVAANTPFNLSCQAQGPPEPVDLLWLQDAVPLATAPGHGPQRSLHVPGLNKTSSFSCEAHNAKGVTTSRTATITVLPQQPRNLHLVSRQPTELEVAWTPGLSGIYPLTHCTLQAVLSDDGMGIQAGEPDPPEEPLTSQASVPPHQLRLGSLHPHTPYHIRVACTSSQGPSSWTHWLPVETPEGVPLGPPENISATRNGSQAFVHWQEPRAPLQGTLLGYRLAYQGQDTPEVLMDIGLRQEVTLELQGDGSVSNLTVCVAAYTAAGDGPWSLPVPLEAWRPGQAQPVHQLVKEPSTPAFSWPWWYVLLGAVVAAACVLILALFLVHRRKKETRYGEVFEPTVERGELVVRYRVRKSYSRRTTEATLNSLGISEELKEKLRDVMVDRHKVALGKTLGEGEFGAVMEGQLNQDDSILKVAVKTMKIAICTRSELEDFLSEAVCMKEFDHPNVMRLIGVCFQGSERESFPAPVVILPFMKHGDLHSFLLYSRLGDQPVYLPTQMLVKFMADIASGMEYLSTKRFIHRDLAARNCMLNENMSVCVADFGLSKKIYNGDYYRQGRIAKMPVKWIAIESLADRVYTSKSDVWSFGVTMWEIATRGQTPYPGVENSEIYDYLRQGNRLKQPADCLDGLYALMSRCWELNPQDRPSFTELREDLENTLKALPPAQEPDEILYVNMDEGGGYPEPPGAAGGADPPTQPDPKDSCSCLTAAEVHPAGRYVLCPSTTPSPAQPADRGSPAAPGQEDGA
Method in brief: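 HeLa cells on poly-L-lysine, starved 24 h in 0.5% FCS DMEM with Axl/Fc 500 ng/mL, pre-treated with compound 1 h at 37 °C, then stimulated 5 min by anti-Axl/anti-mouse antibody cross-linking. Fixed cells probed for phospho-Akt with HRP secondary and chemiluminescent detection.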

With `Nc1nc(Nc2ccc(N3CCC(N4C(=O)Cc5ccccc54)CC3)c(F)c2)n(-c2cc3c(nn2)-c2ccccc2CCC3)n1` [Compound 157, 1-(6,7-dihydro-5H-benzo[6,7]cyclohepta[1,2-c]pyridazin-3-yl)-N^5-(3-fluoro-4-(4-(indolin-2-on-1-yl)piperidin-1-yl)phenyl)-1H-1,2,4-triazole-3,5-diamine] the IC50 was greater than 20000 nM.

same assay, conditions: Hela cells, phospho-Akt chemiluminescence normalized to relative cell number; compounds of formula (Ib), Table 2; read-out: IC50

First: Nc1nc(Nc2ccc(N3CCC(N4CCOCC4)CC3)c(F)c2)n(-c2cc3c(nn2)-c2ccccc2CCC3)n1 [Compound 158, 1-(6,7-dihydro-5H-benzo[6,7]cyclohepta[1,2-c]pyridazin-3-yl)-N^5-(3-fluoro-4-(4-(morpholin-4-yl)piperidin-1-yl)phenyl)-1H-1,2,4-triazole-3,5-diamine]
Second: Nc1nc(Nc2ccc(N3CCC(N4CCCC4)CC3)cc2)n(-c2cc3c(nn2)-c2ccccc2CCC3)n1 [Compound 164, 1-(6,7-dihydro-5H-benzo[6,7]cyclohepta[1,2-c]pyridazin-3-yl)-N^5-(4-(4-pyrrolidin-1-ylpiperidinyl)phenyl)-1H-1,2,4-triazole-3,5-diamine]
The IC50 of the first is higher: greater than 20000 nM for the first, 1000 to 10000 nM for the second.

Compared with `CN(C)Cc1nc2cc(Nc3nc(N)nn3-c3cc4c(nn3)-c3ccccc3CCC4)ccc2[nH]1` [Compound 159, 1-(6,7-dihydro-5H-benzo[6,7]cyclohepta[1,2-c]pyridazin-3-yl)-N^5-(2-((dimethylamino)methyl)-1H-benzo[d]imidazol-5-yl)-1H-1,2,4-triazole-3,5-diamine], `CC1CN(c2ccc(Nc3nc(N)nn3-c3cc4c(nn3)-c3ccccc3CCC4)cc2)CC(C)N1` (centres unmarked) [Compound 160, 1-(6,7-dihydro-5H-benzo[6,7]cyclohepta[1,2-c]pyridazin-3-yl)-N^5-(4-(3,5-dimethylpiperazin-1-yl)phenyl)-1H-1,2,4-triazole-3,5-diamine] is lower in IC50: greater than 20000 nM for the first, less than 1000 nM for the second.

First: CN(C1CCc2ccc(Nc3nc(N)nn3-c3cc4c(nn3)-c3ccccc3CCC4)cc2CC1)C1CC2CCC1C2 (centres unmarked) [Compound 161, 1-(6,7-dihydro-5H-benzo[6,7]cyclohepta[1,2-c]pyridazin-3-yl)-N^5-(7-((bicyclo[2.2.1]heptan-2-yl)(methyl)amino)-6,7,8,9-tetrahydro-5H-benzo[7]annulene-2-yl)-1H-1,2,4-triazole-3,5-diamine]
Second: Nc1nc(Nc2ccc(CN3CCC(N4CCCC4)CC3)cc2)n(-c2cc3c(nn2)-c2ccccc2CCC3)n1 [Compound 165, 1-(6,7-dihydro-5H-benzo[6,7]cyclohepta[1,2-c]pyridazin-3-yl)-N^5-(4-((4-pyrrolidin-1-ylpiperidinyl)methyl)phenyl)-1H-1,2,4-triazole-3,5-diamine]
The IC50 of the first is higher: 1000 to 10000 nM for the first, less than 1000 nM for the second.

First: CN1CCN(c2ccc(Nc3nc(N)nn3-c3cc4c(nn3)-c3ccccc3N(C)CC4)cc2)CC1 [Compound 162, 1-(7-methyl-6,7-dihydro-5H-benzo[2,3]azepino[4,5-c]pyridazin-3-yl)-N^5-(4-(N-methylpiperazin-1-yl)phenyl)-1H-1,2,4-triazole-3,5-diamine]
Second: Nc1nc(Nc2ccc(CN3CCN(C4CCCC4)CC3)cc2)n(-c2cc3c(nn2)-c2ccccc2CCC3)n1 [Compound 166, 1-(6,7-dihydro-5H-benzo[6,7]cyclohepta[1,2-c]pyridazin-3-yl)-N^5-(4-((4-cyclopentylpiperazinyl)methyl)phenyl)-1H-1,2,4-triazole-3,5-diamine]
The IC50 of the first is higher: greater than 20000 nM for the first, 1000 to 10000 nM for the second. The second is the more potent here.

In the case of `Nc1nc(Nc2ccc(CC3C(=O)Nc4ccc(F)cc43)cc2)n(-c2cc3c(nn2)-c2ccccc2CCC3)n1` (centres unmarked) [Compound 163, 1-(6,7-dihydro-5H-benzo[6,7]cyclohepta[1,2-c]pyridazin-3-yl)-N^5-(4-((5-fluoroindolin-2-on-3-yl)methyl)phenyl)-1H-1,2,4-triazole-3,5-diamine], the IC50 is reported as greater than 20000 nM.

same assay, conditions: inhibition of Axl activity; Table 1, compounds of formula (Ia); read-out: IC50

`Nc1nc(Nc2ccc(CCCN3CCCCC3)nc2)nn1-c1cc2c(nn1)-c1ccccc1CCC2` [Compound 142, 1-(6,7-dihydro-5H-benzo[6,7]cyclohepta[1,2-c]pyridazin-3-yl)-N^3-(6-(3-piperidin-1-yl)-propanylpyridin-3-yl)-1H-1,2,4-triazole-3,5-diamine] and `Nc1nc(Nc2ccc(/C=C/CN3CCC(N4CCCCC4)CC3)nc2)nn1-c1cc2c(nn1)-c1ccccc1CCC2` [Compound 145, 1-(6,7-dihydro-5H-benzo[6,7]cyclohepta[1,2-c]pyridazin-3-yl)-N^3-(6-(3-(4-(piperidin-1-yl)piperidin-1-yl)-(E)-propenyl)pyridin-3-yl)-1H-1,2,4-triazole-3,5-diamine] cannot be ordered by IC50: less than 1000 nM for the first, less than 1000 nM for the second.

First: Nc1nc(Nc2ccc(N3CCC(N4CCCC4)CC3)c(F)c2)nn1-c1cc2c(nn1)-c1ccc(Cl)cc1CCC2 [Compound 143, 1-(6,7-dihydro-9-chloro-5H-benzo[6,7]cyclohepta[1,2-c]pyridazin-3-yl)-N^3-(3-fluoro-4-(4-pyrrolidin-1-ylpiperidin-1-yl)phenyl)-1H-1,2,4-triazole-3,5-diamine]
Second: CN1CCN(C2CCN(c3ccc(Nc4nc(N)n(-c5cc6c(nn5)-c5ccc(Cl)cc5CCC6)n4)cc3F)CC2)CC1 [Compound 144, 1-(6,7-dihydro-9-chloro-5H-benzo[6,7]cyclohepta[1,2-c]pyridazin-3-yl)-N^3-(3-fluoro-4-(4-(N-methylpiperazin-1-yl)piperidin-1-yl)phenyl)-1H-1,2,4-triazole-3,5-diamine]
The IC50 of the first is lower: less than 1000 nM for the first, 1000 to 10000 nM for the second.

`CN(C)C1CCN(C/C=C/c2ccc(Nc3nc(N)n(-c4cc5c(nn4)-c4ccccc4CCC5)n3)cn2)CC1` [Compound 146, 1-(6,7-dihydro-5H-benzo[6,7]cyclohepta[1,2-c]pyridazin-3-yl)-N^3-(6-(3-(4-dimethylaminopiperidin-1-yl)-(E)-propenyl)pyridin-3-yl)-1H-1,2,4-triazole-3,5-diamine] and `Nc1nc(Nc2ccc3c(c2)CCC(N2CCC2)CC3)nn1-c1cc2c(nn1)-c1ccccc1CCC2` (centres unmarked) [Compound 151, 1-(6,7-dihydro-5H-benzo[6,7]cyclohepta[1,2-c]pyridazin-3-yl)-N^3-((7-azetidin-1-yl)-6,7,8,9-tetrahydro-5H-benzo[7]annulene-2-yl)-1H-1,2,4-triazole-3,5-diamine] cannot be ordered by IC50: less than 1000 nM for the first, less than 1000 nM for the second.

First: Nc1nc(Nc2cnc(N3CCC(N4CCCC4)CC3)nc2)nn1-c1cc2c(nn1)-c1ccccc1CCC2 [Compound 147, 1-(6,7-dihydro-5H-benzo[6,7]cyclohepta[1,2-c]pyridazin-3-yl)-N^3-(2-(4-pyrrolidin-1-ylpiperidin-1-yl)pyrimidin-5-yl)-1H-1,2,4-triazole-3,5-diamine]
Second: Nc1nc(Nc2cnc(N3CCC(CN4CCCCC4)CC3)nc2)nn1-c1cc2c(nn1)-c1ccccc1CCC2 [Compound 148, 1-(6,7-dihydro-5H-benzo[6,7]cyclohepta[1,2-c]pyridazin-3-yl)-N^3-(2-(4-(piperidin-1-ylmethyl)piperidin-1-yl)pyrimidin-5-yl)-1H-1,2,4-triazole-3,5-diamine]
The IC50 of the first is lower: less than 1000 nM for the first, 1000 to 10000 nM for the second. The first is the more potent here.

First: Nc1nc(Nc2ccc(C(=O)N3CCC(N4CCCCC4)CC3)nc2)nn1-c1cc2c(nn1)-c1ccccc1CCC2 [Compound 149, 1-(6,7-dihydro-5H-benzo[6,7]cyclohepta[1,2-c]pyridazin-3-yl)-N^3-(6-((4-piperidin-1-ylpiperidin-1-yl)carbonyl)pyridin-3-yl)-1H-1,2,4-triazole-3,5-diamine]
Second: Nc1nc(Nc2ccc3c(c2)CCC(N2CCCCC2)CC3)nn1-c1cc2c(nn1)-c1ccccc1CCC2 (centres unmarked) [Compound 150, 1-(6,7-dihydro-5H-benzo[6,7]cyclohepta[1,2-c]pyridazin-3-yl)-N^3-((7-piperidin-1-yl)-6,7,8,9-tetrahydro-5H-benzo[7]annulene-2-yl)-1H-1,2,4-triazole-3,5-diamine]
The IC50 of the first is higher: 1000 to 10000 nM for the first, less than 1000 nM for the second.

`Nc1nc(Nc2cnc3c(c2)CCC(N2CCCC2)CC3)nn1-c1cc2c(nn1)-c1ccccc1CCC2` (centres unmarked) [Compound 152, 1-(6,7-dihydro-5H-benzo[6,7]cyclohepta[1,2-c]pyridazin-3-yl)-N^3-((7-pyrrolidin-1-yl)-6,7,8,9-tetrahydro-5H-cyclohepta[b]pyridine-3-yl)-1H-1,2,4-triazole-3,5-diamine] and `Nc1nc(Nc2ccc3c(c2)CN(C2CCCC2)CC3)nn1-c1cc2c(nn1)-c1ccccc1CCC2` [Compound 153, 1-(6,7-dihydro-5H-benzo[6,7]cyclohepta[1,2-c]pyridazin-3-yl)-N^3-(2-cyclopentyl-1,2,3,4-tetrahydroisoquinolin-7-yl)-1H-1,2,4-triazole-3,5-diamine] cannot be ordered by IC50: less than 1000 nM for the first, less than 1000 nM for the second.

For `Nc1nc(Nc2ccc(I)cc2)nn1-c1cc2c(nn1)-c1ccccc1CCC2` [Compound 156, 1-(6,7-dihydro-5H-benzo[6,7]cyclohepta[1,2-c]pyridazin-3-yl)-N^3-(4-iodophenyl)-1H-1,2,4-triazole-3,5-diamine], the IC50 was greater than 20000 nM.

Reference: US7709482B2, “Polycyclic heteroaryl substituted triazoles useful as Axl inhibitors” (Rigel Pharmaceuticals, Inc., priority 2006, dated 2010)
